# Test results taken from patent US11414415B2, “6H-imidazo[4,5,1-ij]quinolone, synthesis method and use thereof” (HANGZHOU NORMAL UNIVERSITY, priority 2020, dated 2022).
# Test system: A549 (lung cancer cell)
# Assay: MTT tumor cell proliferation assay on A549 lung cancer cells
# Type: cell-based
# Conditions: Homo sapiens, 48 h, 44 h culture + 4 h MTT, read at 570 nm, sample concentration 0.5 mg/mL (water as solvent)
# Procedure: Biological activity assay was conducted on compounds I-d to I-f prepared in the above examples:
# Original osimertinib was used as control.
# Specific procedure was as follows: plating A549 cells in a 96-well plate at a cell density of 2×10^4 cells/mL; after placing in an incubator overnight at 37° C. in 5% CO2, adding samples to be screened (sample concentrations are given in Table 1; medication groups were given 10 μL of the drug at the corresponding concentration per well, and blank control group was given 10 μL of PBS per well); after culturing for 44 h, adding 10 μL of MTT per well to culture for additional 4 h; dissolving in DMSO, shaking, and detecting on a microplate reader at 570 nm.
# Inhibitory concentration 50 (IC50) values of 6H-imidazo[4,5,1-ij]quinolone derivatives with structures as shown in formulas I-d to I-f and control drug original osimertinib against A549 (lung cancer cell) were detected.
row,Structure (SMILES),IC50 [µM]
1,Cc1ccc(-c2nc3cccc4c(=O)ccn2c34)cc1 [I-a],11.2
2,O=c1ccn2c(-c3ccccc3Cl)nc3cccc1c32 [I-c],16.2
3,O=c1ccn2c(-c3ccc(F)cc3)nc3cccc1c32 [I-b],15.3
4,COc1cc2nc(-c3ccccc3)n3ccc(=O)c(c1)c23 [I-f],12.3
5,"C=CC(=O)Nc1cc(Nc2nccc(-c3cn(C)c4ccccc34)n2)c(OC)cc1N(C)CCN(C)C [Osimertinib, osimertinib, reference compound]",9.74

# The next lines start with the values.
row,IC50 [µM],Structure (SMILES)
1,21.1,O=c1ccn2c(C3CC3)nc3cccc1c32 [I-e]
2,9.9,O=c1ccn2c(-c3cccs3)nc3cccc1c32 [I-d]

# Same assay, conditions: statement in words
row,Structure (SMILES),IC50 value compared with osimertinib
1,O=c1ccn2c(-c3cccs3)nc3cccc1c32 [I-d],equivalent to anti-lung cancer drug osimertinib
